According to patent publication US11447466B2, “Substituted indole compounds useful as inhibitors of TLR7/8/9” (BRISTOL-MYERS SQUIBB COMPANY, priority 2017, dated 2022):
pIC50: −log10 of the molar value.

Key:
Format in all cases: cell-based
[1] = biological target: T1, human TLR7 (Homo sapiens, UniProt Q9NYK1); assay: TLR7 inhibition reporter assay (HEK-Blue SEAP reporter, gardiquimod stimulation); conditions: HEK-Blue cells overexpressing human TLR7, SEAP reporter, gardiquimod 7.5 μM, 22 hour incubation
T1 construct: host or cells: HEK-Blue cells
T1 sequence (Q9NYK1 27-1049): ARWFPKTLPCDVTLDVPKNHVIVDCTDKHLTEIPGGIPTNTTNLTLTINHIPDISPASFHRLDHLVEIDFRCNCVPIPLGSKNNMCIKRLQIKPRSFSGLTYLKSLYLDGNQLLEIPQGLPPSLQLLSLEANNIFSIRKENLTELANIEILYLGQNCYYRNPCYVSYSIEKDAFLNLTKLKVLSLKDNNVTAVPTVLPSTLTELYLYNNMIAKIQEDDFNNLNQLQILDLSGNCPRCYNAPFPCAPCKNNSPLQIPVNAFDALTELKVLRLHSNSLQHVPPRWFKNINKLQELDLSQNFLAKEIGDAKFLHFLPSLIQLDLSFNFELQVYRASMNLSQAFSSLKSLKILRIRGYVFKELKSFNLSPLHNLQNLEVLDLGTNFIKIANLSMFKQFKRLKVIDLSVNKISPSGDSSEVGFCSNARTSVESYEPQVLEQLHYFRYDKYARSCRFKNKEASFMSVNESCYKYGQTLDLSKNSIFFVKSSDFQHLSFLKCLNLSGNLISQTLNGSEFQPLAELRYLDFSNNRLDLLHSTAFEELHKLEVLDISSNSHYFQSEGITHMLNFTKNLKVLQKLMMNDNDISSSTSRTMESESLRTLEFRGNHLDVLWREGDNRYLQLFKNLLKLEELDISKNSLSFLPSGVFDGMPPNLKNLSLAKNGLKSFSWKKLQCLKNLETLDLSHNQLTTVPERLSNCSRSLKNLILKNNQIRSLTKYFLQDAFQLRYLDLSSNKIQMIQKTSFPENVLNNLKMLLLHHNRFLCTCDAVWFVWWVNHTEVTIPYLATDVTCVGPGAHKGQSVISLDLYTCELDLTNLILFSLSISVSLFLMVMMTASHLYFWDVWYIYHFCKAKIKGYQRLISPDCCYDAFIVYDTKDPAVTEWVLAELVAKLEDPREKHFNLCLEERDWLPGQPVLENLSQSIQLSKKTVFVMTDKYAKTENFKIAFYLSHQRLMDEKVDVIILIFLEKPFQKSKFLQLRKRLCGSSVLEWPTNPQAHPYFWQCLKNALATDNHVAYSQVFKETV
Method in brief: (§1)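 Dose–response from 0.05 nM to 50 μM was run in HEK-Blue human TLR7, TLR8 and TLR9 reporter cells. After 30 min at room temperature with compound, ligand was added (TLR7 gardiquimod 7.5 μM; TLR8 R848 15.9 μM; TLR9 ODN2006 5 nM) and SEAP measured next day, at 22 h.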

[2] = biological target: T2, human TLR8 (Homo sapiens, UniProt Q9NR97); assay: TLR8 inhibition reporter assay (HEK-Blue SEAP reporter, R848 stimulation); conditions: HEK-Blue cells overexpressing human TLR8, SEAP reporter, R848 15.9 μM, 22 hour incubation
T2 construct: host or cells: HEK-Blue cells
T2 sequence (Q9NR97 27-1041): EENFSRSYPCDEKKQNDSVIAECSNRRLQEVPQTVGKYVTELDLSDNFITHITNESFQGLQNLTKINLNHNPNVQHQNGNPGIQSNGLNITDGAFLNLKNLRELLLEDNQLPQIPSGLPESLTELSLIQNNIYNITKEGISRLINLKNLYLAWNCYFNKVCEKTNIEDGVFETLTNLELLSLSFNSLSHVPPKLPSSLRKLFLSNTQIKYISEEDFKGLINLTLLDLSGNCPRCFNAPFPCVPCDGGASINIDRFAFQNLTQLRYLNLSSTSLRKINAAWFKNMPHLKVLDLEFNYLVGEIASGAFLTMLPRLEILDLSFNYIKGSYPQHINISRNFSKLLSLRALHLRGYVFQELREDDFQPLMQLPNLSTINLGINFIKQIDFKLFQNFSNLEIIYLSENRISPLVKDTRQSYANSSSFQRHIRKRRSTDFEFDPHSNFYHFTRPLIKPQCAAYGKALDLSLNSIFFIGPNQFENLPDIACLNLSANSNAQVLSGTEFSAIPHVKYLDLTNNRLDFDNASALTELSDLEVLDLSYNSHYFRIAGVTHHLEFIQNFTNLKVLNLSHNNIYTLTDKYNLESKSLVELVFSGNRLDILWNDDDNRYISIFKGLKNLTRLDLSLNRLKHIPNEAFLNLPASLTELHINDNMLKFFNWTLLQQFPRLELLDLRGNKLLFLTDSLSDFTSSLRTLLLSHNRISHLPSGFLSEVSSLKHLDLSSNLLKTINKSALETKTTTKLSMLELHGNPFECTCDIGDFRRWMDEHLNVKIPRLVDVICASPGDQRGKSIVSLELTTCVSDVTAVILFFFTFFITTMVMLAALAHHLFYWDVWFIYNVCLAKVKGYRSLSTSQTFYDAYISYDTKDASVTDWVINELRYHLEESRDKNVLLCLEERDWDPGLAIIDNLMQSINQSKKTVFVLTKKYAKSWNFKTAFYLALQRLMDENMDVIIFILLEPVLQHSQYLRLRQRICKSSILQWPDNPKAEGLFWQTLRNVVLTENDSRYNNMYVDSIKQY
Method in brief: as §1

[3] = biological target: T3, human TLR9 (Homo sapiens, UniProt Q9NR96); assay: TLR9 inhibition reporter assay (HEK-Blue SEAP reporter, ODN2006 stimulation); conditions: HEK-Blue cells overexpressing human TLR9, SEAP reporter, ODN2006 5 nM, 22 hour incubation
T3 construct: host or cells: HEK-Blue cells
T3 sequence (Q9NR96 26-1032): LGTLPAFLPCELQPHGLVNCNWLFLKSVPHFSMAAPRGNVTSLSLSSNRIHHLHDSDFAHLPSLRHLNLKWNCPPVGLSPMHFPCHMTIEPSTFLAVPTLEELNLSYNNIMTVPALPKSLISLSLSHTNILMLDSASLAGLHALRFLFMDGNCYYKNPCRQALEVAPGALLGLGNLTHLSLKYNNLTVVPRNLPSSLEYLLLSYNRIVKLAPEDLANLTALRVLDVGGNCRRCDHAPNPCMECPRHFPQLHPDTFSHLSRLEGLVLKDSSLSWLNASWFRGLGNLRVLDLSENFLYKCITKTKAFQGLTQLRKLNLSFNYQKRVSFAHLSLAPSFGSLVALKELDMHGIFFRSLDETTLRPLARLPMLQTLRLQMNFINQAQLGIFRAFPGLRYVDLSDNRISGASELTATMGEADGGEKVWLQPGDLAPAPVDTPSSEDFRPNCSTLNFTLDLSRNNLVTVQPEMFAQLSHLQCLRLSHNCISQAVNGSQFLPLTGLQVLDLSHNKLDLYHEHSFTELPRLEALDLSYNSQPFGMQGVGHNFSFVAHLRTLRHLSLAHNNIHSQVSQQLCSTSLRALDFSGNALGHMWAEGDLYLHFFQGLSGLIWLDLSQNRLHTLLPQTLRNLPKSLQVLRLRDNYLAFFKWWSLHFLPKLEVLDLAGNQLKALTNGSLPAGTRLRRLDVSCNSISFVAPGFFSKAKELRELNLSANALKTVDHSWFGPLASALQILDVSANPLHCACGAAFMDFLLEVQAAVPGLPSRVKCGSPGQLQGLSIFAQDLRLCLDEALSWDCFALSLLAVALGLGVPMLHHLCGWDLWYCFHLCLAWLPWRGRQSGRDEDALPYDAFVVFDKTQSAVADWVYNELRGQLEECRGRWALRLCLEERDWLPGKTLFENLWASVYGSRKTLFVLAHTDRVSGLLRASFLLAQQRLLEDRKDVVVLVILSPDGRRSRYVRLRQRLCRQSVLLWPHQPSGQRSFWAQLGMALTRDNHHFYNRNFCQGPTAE
Method in brief: as §1

SMILES	pIC50 [1]	pIC50 [2]	pIC50 [3]
Cc1cc(-c2[nH]c3ccc(C4CCN(CC5=NN=CC5)CC4)cc3c2C(C)C)cn(C)c1=O [Example 200, 5-(5-(1-((4H-pyrazol-3-yl)methyl)piperidin-4-yl)-3-isopropyl-1H-indol-2-yl)-1,3-dimethylpyridin-2(1H)-one]	8.37	8.66	5.43
Cc1c(-c2[nH]c3ccc(C4CCNCC4)cc3c2C(C)C)cn(C)c(=O)c1N [Example 19, 3-amino-5-(3-isopropyl-5-(piperidin-4-yl)-1H-indol-2-yl)-1,4-dimethylpyridin-2(1H)-one]	7.59	7.40	6.10
Cc1cc(-c2[nH]c3ccc(C4CCN(CC(=O)N(C)C)CC4)cc3c2C(C)C)cn(CC(C)C)c1=O [Example 163, 2-(4-(2-(1-isobutyl-5-methyl-6-oxo-1,6-dihydropyridin-3-yl)-3-isopropyl-1H-indol-5-yl)piperidin-1-yl)-N,N-dimethylacetamide]	7.91	6.93	5.41
COCCCN1CCC(c2ccc3[nH]c(-c4cn(C)c(=O)c(Cl)c4C)c(C(C)C)c3c2)CC1 [Example 99, 3-chloro-5-(3-isopropyl-5-(1-(3-methoxypropyl)piperidin-4-yl)-1H-indol-2-yl)-1,4-dimethylpyridin-2(1H)-one]	8.15	7.99	5.30
CC(C)c1c(-c2cc(CCC(C)(C)C)c(=O)n(C)c2)[nH]c2ccc(C3CCNCC3)cc12 [Example 61, 3-(3,3-dimethylbutyl)-5-(3-isopropyl-5-(piperidin-4-yl)-1H-indol-2-yl)-1-methylpyridin-2(1H)-one]	5.66	5.64	5.68
CC(C)c1c(-c2cc(C(=O)N3CCCC3)c(=O)n(C)c2)[nH]c2ccc(C3CCNCC3)cc12 [Example 69, 5-(3-isopropyl-5-(piperidin-4-yl)-1H-indol-2-yl)-1-methyl-3-(pyrrolidine-1-carbonyl) pyridin-2(1H)-one]	6.48	6.75	≤ 4.30
CC(=O)Nc1cccc(-c2cc(-c3[nH]c4ccc(C5CCNCC5)cc4c3C(C)C)cn(C)c2=O)c1 [Example 60, N-(3-(5-(3-isopropyl-5-(piperidin-4-yl)-1H-indol-2-yl)-1-methyl-2-oxo-1,2-dihydropyridin-3-yl)phenyl)acetamide]	7.04	6.68	5.51
CCCN1CCC(c2ccc3[nH]c(-c4cc(-c5ccc(N6CCOCC6)nc5)c(=O)n(C)c4)c(C(C)C)c3c2)CC1 [Example 330, 5-(3-isopropyl-5-(1-propylpiperidin-4-yl)-1H-indol-2-yl)-1-methyl-6′-morpholino-[3,3′-bipyridin]-2(1H)-one]	8.11	6.36	6.15
Cc1c(-c2[nH]c3ccc(C4CCN(C(=O)CN(C)C)CC4)cc3c2C(C)C)cc(C#N)c(=O)n1C [Example 273, 5-(5-(1-(dimethylglycyl)piperidin-4-yl)-3-isopropyl-1H-indol-2-yl)-1,6-dimethyl-2-oxo-1,2-dihydropyridine-3-carbonitrile]	7.04	7.80	5.68
CC(C)c1c(-c2ccc(=O)n(CC(N)=O)c2)[nH]c2ccc(C3CCNCC3)cc12 [Example 49, 2-(5-(3-isopropyl-5-(piperidin-4-yl)-1H-indol-2-yl)-2-oxopyridin-1(2H)-yl)acetamide]	5.58	5.68	≤ 4.30
CCCN1CCC(c2ccc3[nH]c(-c4cc(-c5cnc(C6CC6)nc5)c(=O)n(C)c4)c(C(C)C)c3c2)CC1 [Example 338, 3-(2-cyclopropylpyrimidin-5-yl)-5-(3-isopropyl-5-(1-propylpiperidin-4-yl)-1H-indol-2-yl)-1-methylpyridin-2(1H)-one]	8.96	7.87	6.11
CC(C)c1c(-c2cc(Cl)c(=O)n(C)c2)[nH]c2ccc(C3CCN(C4CCOCC4)CC3)cc12 [Example 226, 3-chloro-5-(3-isopropyl-5-(1-(tetrahydro-2H-pyran-4-yl)piperidin-4-yl)-1H-indol-2-yl)-1-methylpyridin-2(1H)-one]	8.42	8.15	4.98
Cc1cc(-c2[nH]c3ccc(C4CCNCC4)cc3c2C(C)C)cn(CC(F)F)c1=O [Example 40, 1-(2,2-difluoroethyl)-5-(3-isopropyl-5-(piperidin-4-yl)-1H-indol-2-yl)-3-methylpyridin-2(1H)-one]	8.28	7.77	5.35
Cc1cc(-c2[nH]c3ccc(C4CCN(CC5(O)CCOCC5)CC4)cc3c2C(C)C)c(C)n(C)c1=O [Example 320, 5-(5-(1-((4-hydroxytetrahydro-2H-pyran-4-yl)methyl)piperidin-4-yl)-3-isopropyl-1H-indol-2-yl)-1,3,6-trimethylpyridin-2(1H)-one]	7.85	8.77	5.64
